Data set [1] concerns the target T1, vFLIP/NEMO interaction (Human herpesvirus 8 type P, UniProt F5HEZ4).
T1 construct: vFLIP (1-178) and NEMO (150-272) were cloned into pET28a vector; made in house; host or cells: E. coli BL21(DE3)
The data set can be described thus: biochemical. It is filed as binding, Kaposi's sarcoma herpesvirus (KSHV). On the procedure: For the competition assay, two-fold serial dilution of the different NEMO mimetics were prepared in DMSO then diluted in TR-FRET buffer to 5× and added in triplicates to a 384 low volume well plate. His-MBP vFLIP diluted to 5× in TR-FRET buffer (250 nM) was then added to each well and incubated for 15 min at RT. His-Biotinylated NEMO diluted to 5× in TR-FRET buffer (250 nM) was the added to the mixture followed by addition of 5× or 200 nM) streptavidin-XL665 and (5× or 1 nM) of the antibody-tagged fluorophore anti-MBPK labeled with Europium cryptate). The final concentration of the NEMO mimetics ranged from 0.195 μM to 100 μM. Total assay volume was 20 μL. The plate was incubated for 1 h at RT then read using BioTek Synergy NEO. Titration of non-biotinylated NEMO (0.0195-10 μM) was used as a positive control in every run. The effect of the peptides on vFLIP/NEMO interaction was normalized to the control and expressed as percent inhibition (% of control):
%ofcontrol=FRETCHD−FRETbackground/FRETcontrol−FRETbackground where FRET control is the TR-FRET signal in DMSO treated wells (highest signal) and FRET background is TR-FRET signal in wells containing the highest concentration of non-biotinylated NEMO (10 μM) which provides the lowest signal. Normalized TR-FRET data was plotted using Graphpad Prism.
Supplementary Figure 1. Schematic representation of the Time-resolved Fluorescence Energy Transfer (TR-FRET) binding assay. (a) Complexes of recombinant his-MBP vFLIP, biotinylated His-NEMO, Europium cryptate conjugated anti-MBP antibody and strepavidin XL665 were used to generate proximity for a FRET signal between the donor fluorophore Europium cryptate and the acceptor fluorophore strepavidin XL665. The TR-FRET signal was calculated as a ratiometric measurement of the acceptor fluoroscence emission at 665nm over the donor emission at 620nm multiplied by 10000. […] (d) Size exclusion chromatography of NEMO-vFLIP complex indicating a shift to the left in absorbance at 280nm when NEMO binds specifically to vFLIP. […]

The nature of data set [2]: Serum stability assay. The class given is in vitro ADME. As to conditions: 25% fetal bovine serum in RPMI, HPLC, read-out: initial peptide remained intact. How it is done:
Time points of 30 min, 1 h, 2 h, 8 h, and 24 h were analyzed in triplicate. Each reaction was started upon addition of FBS to 60 μM peptide. Reactions were quenched at time points with addition of 100% EtOH, chilled on ice for 10 min, and pelleted at 11,752 × g. Supernatant was injected onto an Agilent analytical HPLC equipped with an XTerra RP18 3.5 µm 2.1 × 150 mm column (Part No. 186000410) and visualized at 220 nm. Integration of peak areas was used to determine percent degradation of peptides. Mass of cleaved products were determined using Matrix assisted laser desorption ion time of flight (MALDI-TOF) spectroscopy.

The subject of data set [3] is BC-3-luc PEL xenograft. The data set is described as follows: PEL in vivo xenograft mouse model. Further details: species or system NOD-SCID mice. As to conditions: 20 mg/kg, 9 consecutive days. On the procedure:
We injected BC-3-luc PEL cells into the peritoneal cavity of NOD-SCID mice and monitored tumor burden by bioluminescence imaging. […] Although the overall performance of our peptide is highly encouraging, further optimization of delivery and dosing will be essential to achieve more robust responses in vivo.
[…] BC3NFRen-luc#3 were injected intraperitoneally into 4-6 week-old male NOD/SCID mice (Jackson Laboratory, stock 001303). […] We monitored tumor burden or bioluminescence (photons/s/cm^2/steradian) by live imaging and weighing, with the sacrificial endpoint determined to be a net gain or loss of 10% body weight over a week.

Data set [4] in a line: Thermal denaturation by circular dichroism. It is filed as physicochemical. As to conditions: 5–95 °C. How it is done:
[…] The spectra were averaged over 4 scans with the background subtracted to the analogous experimental conditions. Each sample was prepared in a 50 mM potassium fluoride solution in water (pH 7.4) to a final concentration of 20 μM. The concentrations of each peptide were determined by the UV absorption at 280 nm.

T1 sequence (F5HEZ4 1-178): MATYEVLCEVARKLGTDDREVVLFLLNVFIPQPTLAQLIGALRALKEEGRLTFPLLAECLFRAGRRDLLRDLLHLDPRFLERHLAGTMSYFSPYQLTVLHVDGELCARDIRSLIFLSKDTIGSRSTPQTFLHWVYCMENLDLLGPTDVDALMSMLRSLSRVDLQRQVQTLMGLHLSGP

One may read the Ki as the equilibrium dissociation constant of an inhibitor or competing ligand from its target. Consider `CC[C@H](C)[C@H](NC(=O)[C@H](CC(C)C)NC(=O)[C@H](CCC(=O)O)NC(=O)[C@H](CC(=O)O)NC(=O)[C@@H](NC(=O)[C@H](CCCCn1cc(COCc2cn(CCCC[C@H](NC(=O)[C@H](CC(C)C)NC(=O)[C@H](CCCNC(=N)N)NC(=O)[C@H](CCCNC(=N)N)NC(=O)[C@@H](NC(=O)[C@H](CCC(=O)NC3CCCCC3)NC(=O)[C@H](CCC(=O)O)NC(=O)[C@H](Cc3c[nH]c4ccccc34)NC(=O)[C@H](CC(C)C)NC(=O)[C@H](CCC(N)=O)NC(=O)[C@H](CCCNC(=N)N)NC(=O)[C@@H](NC(=O)[C@H](Cc3c[nH]c4ccccc34)NC(=O)[C@H](CCC(=O)O)NC(C)=O)[C@@H](C)CC)[C@@H](C)CC)C(N)=O)nn2)nn1)NC(=O)[C@H](CCCNC(=N)N)NC(=O)[C@H](Cc1ccccc1)NC(=O)[C@H](CC(C)C)NC(=O)[C@H](CCCNC(=N)N)NC(=O)[C@H](Cc1c[nH]cn1)NC(=O)[C@@H](NC(=O)[C@H](CCC(=O)O)NC(C)=O)[C@@H](C)CC)[C@@H](C)CC)C(=O)N[C@@H](CCCNC(=N)N)C(N)=O` [CHD3^NEMO], for which the Ki in data set [1] was determined as 6.9 ± 1.4 µM. In addition, the remaining at 24 h, 60 μM in data set [2] is roughly 80%. For the same compound, the toxicity result in data set [3] is recorded as “without any observed toxicity”. Further, the “conformational stability (helix percentage)” value in data set [4] is “retain a significant proportion of helix percentage at high temperatures”.

Values taken from paper PMC7156456, “Modulation of virus-induced NF-κB signaling by NEMO coiled coil mimics” (Nature Communications, 2020).
